Experimental data: ChEMBL document CHEMBL1149417 (Bioorg Med Chem Lett, 2006)

Legend:
Estrogen receptor beta [1] = molecular target: T1, Estrogen receptor beta (Homo sapiens, UniProt Q92731); format: functional, cell-based, HEK293
Description: Effect on transactivation of ALP gene expression in HEK293 cells transfected with hERbeta

Estrogen receptor beta [2] = molecular target: T1, Estrogen receptor beta
Description: Binding affinity to human ERbeta

Androgen receptor = molecular target: T2, Androgen receptor (Homo sapiens, UniProt P10275)
T2 sequence (P10275 whole entry): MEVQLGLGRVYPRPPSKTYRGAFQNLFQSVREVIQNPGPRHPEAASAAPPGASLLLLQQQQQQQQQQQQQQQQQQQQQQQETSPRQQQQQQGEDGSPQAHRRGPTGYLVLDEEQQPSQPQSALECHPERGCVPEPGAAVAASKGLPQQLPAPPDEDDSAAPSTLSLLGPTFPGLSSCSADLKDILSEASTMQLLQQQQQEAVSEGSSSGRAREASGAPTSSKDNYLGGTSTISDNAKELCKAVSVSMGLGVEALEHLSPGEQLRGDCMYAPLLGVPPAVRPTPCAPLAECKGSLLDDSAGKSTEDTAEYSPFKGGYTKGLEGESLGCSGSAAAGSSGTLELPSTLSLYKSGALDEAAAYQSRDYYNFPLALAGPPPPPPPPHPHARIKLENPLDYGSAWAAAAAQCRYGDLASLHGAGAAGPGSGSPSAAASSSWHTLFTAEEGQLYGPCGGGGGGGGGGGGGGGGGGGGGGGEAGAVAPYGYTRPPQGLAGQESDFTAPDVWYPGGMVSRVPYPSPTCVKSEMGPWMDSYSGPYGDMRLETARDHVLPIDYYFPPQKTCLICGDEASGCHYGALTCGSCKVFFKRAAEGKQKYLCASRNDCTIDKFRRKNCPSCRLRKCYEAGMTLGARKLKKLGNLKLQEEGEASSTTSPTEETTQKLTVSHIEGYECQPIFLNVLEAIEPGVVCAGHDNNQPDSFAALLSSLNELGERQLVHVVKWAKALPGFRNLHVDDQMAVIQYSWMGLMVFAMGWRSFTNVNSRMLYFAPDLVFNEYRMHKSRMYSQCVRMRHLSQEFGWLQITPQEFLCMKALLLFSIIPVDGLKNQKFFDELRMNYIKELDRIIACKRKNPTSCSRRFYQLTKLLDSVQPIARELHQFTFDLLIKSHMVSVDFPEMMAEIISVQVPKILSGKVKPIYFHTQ
Description: Inhibitory activity against AR

Estrogen receptor [3] = molecular target: T3, Estrogen receptor (Homo sapiens, UniProt P03372)
T3 sequence (P03372 whole entry): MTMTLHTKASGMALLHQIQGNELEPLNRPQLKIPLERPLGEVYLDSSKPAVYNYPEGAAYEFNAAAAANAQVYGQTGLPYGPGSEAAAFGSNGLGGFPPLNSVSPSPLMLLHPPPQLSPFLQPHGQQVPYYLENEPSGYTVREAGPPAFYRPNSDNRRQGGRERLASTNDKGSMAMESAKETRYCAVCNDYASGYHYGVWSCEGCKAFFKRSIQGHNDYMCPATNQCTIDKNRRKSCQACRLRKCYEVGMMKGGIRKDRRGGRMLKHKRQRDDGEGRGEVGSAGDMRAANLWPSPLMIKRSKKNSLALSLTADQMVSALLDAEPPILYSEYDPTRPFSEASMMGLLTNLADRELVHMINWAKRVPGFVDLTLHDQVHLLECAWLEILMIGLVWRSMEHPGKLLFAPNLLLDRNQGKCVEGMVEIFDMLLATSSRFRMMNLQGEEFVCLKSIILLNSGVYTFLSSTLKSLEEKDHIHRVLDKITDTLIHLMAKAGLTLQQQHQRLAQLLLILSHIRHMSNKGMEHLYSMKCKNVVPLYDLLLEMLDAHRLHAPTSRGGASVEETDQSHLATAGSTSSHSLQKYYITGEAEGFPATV
Description: Binding affinity to human ERalpha

Estrogen receptor [4] = molecular target: T3, Estrogen receptor; format: functional, cell-based, HEK293
Description: Effect on transactivation of ALP gene expression in HEK293 cells transfected with hERalpha

T1 sequence (Q92731 whole entry): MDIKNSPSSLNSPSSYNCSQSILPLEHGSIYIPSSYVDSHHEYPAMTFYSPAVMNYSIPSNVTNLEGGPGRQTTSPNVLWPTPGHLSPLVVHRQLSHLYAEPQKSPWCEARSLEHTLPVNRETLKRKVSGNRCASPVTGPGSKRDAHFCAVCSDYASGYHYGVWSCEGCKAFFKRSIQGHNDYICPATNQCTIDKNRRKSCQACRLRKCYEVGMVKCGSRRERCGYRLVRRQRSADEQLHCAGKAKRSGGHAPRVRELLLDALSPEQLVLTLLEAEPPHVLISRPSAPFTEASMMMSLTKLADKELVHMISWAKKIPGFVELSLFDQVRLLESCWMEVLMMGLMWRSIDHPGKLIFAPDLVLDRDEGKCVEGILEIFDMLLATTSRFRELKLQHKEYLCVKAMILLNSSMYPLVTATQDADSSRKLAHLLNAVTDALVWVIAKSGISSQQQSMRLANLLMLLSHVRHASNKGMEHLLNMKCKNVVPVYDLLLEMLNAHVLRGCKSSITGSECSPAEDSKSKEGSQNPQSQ

Row | SMILES | EC50 (Estrogen receptor beta [1]) | IC50 (Estrogen receptor beta [2]) | IC50 (Androgen receptor) | IC50 (Estrogen receptor [3]) | EC50 (Estrogen receptor [4])
1 | C[C@]12CCC3C(CC=C4C[C@@H](O)CC[C@@]43/C=C/Br)C1CC[C@@H]2O (stereo partly specified) | 67 nM | 210 nM | 120 nM | 3980 nM | > 1000 nM
2 | C[C@]12CCC3C(CC=C4C[C@@H](O)CC[C@@]43CC=O)C1CC[C@@H]2O (stereo partly specified) | > 1000 nM | 1620 nM | > 5000 nM | > 1000 nM | > 1000 nM
3 | C=C[C@]12CCC(=O)C=C1CCC1C2CC[C@@]2(C)C1CC[C@@H]2O (stereo partly specified) | 379 nM | 782 nM | 7.9 nM | > 10000 nM | > 1000 nM
4 | C#CC1(O)CCC2C3CC=C4C[C@@H](O)CC[C@]4(C=C)C3CC[C@@]21C (single isomer, unassigned) | 24 nM | 14 nM | 287 nM | 147 nM | 10 nM
5 | C[C@]12CCC3C(CC=C4C[C@@H](O)CC[C@@]43/C=C\Br)C1CC[C@@H]2O (stereo partly specified) | 96 nM | 212 nM | 20 nM | > 10000 nM | > 1000 nM
6 | C=CC[C@]12CC[C@H](O)CC1=CCC1C2CC[C@@]2(C)C1CC[C@@H]2O (stereo partly specified) | 148 nM | 128 nM | 1770 nM | 1740 nM | 1000 nM
7 | C[C@]12CCC3C(CC=C4C[C@@H](O)CC[C@@]43/C=C/Cl)C1CC[C@@H]2O (stereo partly specified) | 68 nM | 122 nM | 1440 nM | 5600 nM | 603 nM
8 | C=C[C@]12CC[C@H](O)CC1=CCC1C2CC[C@@]2(C)C1CC[C@@H]2O (stereo partly specified) | 4.1 nM | 11 nM | 33 nM | 2240 nM | 982 nM
9 | C[C@]12CCC3C(CC=C4C[C@@H](O)CC[C@@]43CO)C1CC[C@@H]2O (stereo partly specified) | > 641 nM | 1750 nM | > 5000 nM | 6320 nM | > 1000 nM
10 | C[C@]12CCC3C(CC=C4C[C@@H](O)CC[C@@]43/C=C\F)C1CC[C@@H]2O (stereo partly specified) | 3.8 nM | 25 nM | 11 nM | 4280 nM | 622 nM
11 | CO/C=C\[C@]12CC[C@H](O)CC1=CCC1C2CC[C@@]2(C)C1CC[C@@H]2O (stereo partly specified) | 188 nM | 303 nM | 1400 nM | 3350 nM | 3240 nM
12 | C[C@]12CC[C@H]3[C@@H](CCC4=CC(=O)CC[C@@]43C)[C@@H]1CC[C@@H]2O [TESTOSTERONE] |  | > 10000 nM |  |  | 
13 | C[C@]12CCC3C(CC=C4C[C@@H](O)CC[C@@]43/C=C/F)C1CC[C@@H]2O (stereo partly specified) | 8.7 nM | 22 nM | 85 nM | 4160 nM | 324 nM
14 | C#CC[C@]12CC[C@H](O)CC1=CCC1C2CC[C@@]2(C)C1CC[C@@H]2O (stereo partly specified) | 153 nM | 286 nM | 1720 nM | 4640 nM | 984 nM
15 | C[C@]12CCC3C(CC=C4C[C@@H](O)CC[C@@]43/C=C\Cl)C1CC[C@@H]2O (stereo partly specified) | 91 nM | 83 nM | 172 nM | 6690 nM | > 1000 nM
16 | C[C@]12CCC3C(CC=C4C[C@@H](O)CC[C@@]43C=O)C1CC[C@@H]2O (stereo partly specified) | 78 nM | 230 nM | > 5000 nM | > 10000 nM | 844 nM
17 | C/C=C/[C@]12CC[C@H](O)CC1=CCC1C2CC[C@@]2(C)C1CC[C@@H]2O (stereo partly specified) | 39 nM | 96 nM | 843 nM | 1160 nM | 47 nM
18 | CCC[C@]12CC[C@H](O)CC1=CCC1C2CC[C@@]2(C)C1CC[C@@H]2O (stereo partly specified) |  | 132 nM | 1770 nM | 5160 nM | 
19 | C/C=C\[C@]12CC[C@H](O)CC1=CCC1C2CC[C@@]2(C)C1CC[C@@H]2O (stereo partly specified) | 21 nM | 16 nM |  | 1960 nM | 344 nM
20 | CC/C=C\[C@]12CC[C@H](O)CC1=CCC1C2CC[C@@]2(C)C1CC[C@@H]2O (stereo partly specified) | 252 nM | 361 nM | 3770 nM | 3040 nM | 719 nM
21 | C=C[C@]12CC[C@H](O)CC1=CCC1C2CC[C@@]2(C)C1CC[C@]2(C)O (stereo partly specified) | 31 nM | 25 nM | 169 nM | 1050 nM | 494 nM
22 | CC[C@]12CC[C@H](O)CC1=CCC1C2CC[C@@]2(C)C1CC[C@@H]2O (stereo partly specified) |  | 16 nM | 33 nM | 2330 nM | 
23 | CC#C[C@]12CC[C@H](O)CC1=CCC1C2CC[C@@]2(C)C1CC[C@@H]2O (stereo partly specified) | 171 nM | 381 nM | 3730 nM | > 8420 nM | 1000 nM
24 | C#CC12CC[C@H](O)CC1=CCC1C2CC[C@@]2(C)C1CC[C@@H]2O (single isomer, unassigned) | 8 nM | 17 nM | 1760 nM | 425 nM | 160 nM
25 | CO/C=C/[C@]12CC[C@H](O)CC1=CCC1C2CC[C@@]2(C)C1CC[C@@H]2O (stereo partly specified) | 827 nM | 1300 nM | 4620 nM | > 10000 nM | 583 nM
